# Reference: patent US10016438B2, “Bicyclic heterocycles as FGFR4 inhibitors” (Incyte Corporation, priority 2015, dated 2018)
# Target: FGFR4 (Homo sapiens (Human), UniProt P22455)
# Test: FGFR Enzymatic Assay (FRET peptide phosphorylation), FGFR4
# Conditions: IC50 ratio showing FGFR4 selectivity
# [1] = pre-incubated for 5 to 10 minutes
# Source text: The enzymes were purchased from Millipore or Invitrogen.
# GraphPad prism3 was used to analyze the data. The IC50 values were derived by fitting the data to the equation for a sigmoidal dose-response with a variable slope. Y=Bottom+(Top−Bottom)/(1+10^((Log IC50−X)*HillSlope)) where X is the logarithm of concentration and Y is the response.
# FGFR4, sequence (P22455 22-802): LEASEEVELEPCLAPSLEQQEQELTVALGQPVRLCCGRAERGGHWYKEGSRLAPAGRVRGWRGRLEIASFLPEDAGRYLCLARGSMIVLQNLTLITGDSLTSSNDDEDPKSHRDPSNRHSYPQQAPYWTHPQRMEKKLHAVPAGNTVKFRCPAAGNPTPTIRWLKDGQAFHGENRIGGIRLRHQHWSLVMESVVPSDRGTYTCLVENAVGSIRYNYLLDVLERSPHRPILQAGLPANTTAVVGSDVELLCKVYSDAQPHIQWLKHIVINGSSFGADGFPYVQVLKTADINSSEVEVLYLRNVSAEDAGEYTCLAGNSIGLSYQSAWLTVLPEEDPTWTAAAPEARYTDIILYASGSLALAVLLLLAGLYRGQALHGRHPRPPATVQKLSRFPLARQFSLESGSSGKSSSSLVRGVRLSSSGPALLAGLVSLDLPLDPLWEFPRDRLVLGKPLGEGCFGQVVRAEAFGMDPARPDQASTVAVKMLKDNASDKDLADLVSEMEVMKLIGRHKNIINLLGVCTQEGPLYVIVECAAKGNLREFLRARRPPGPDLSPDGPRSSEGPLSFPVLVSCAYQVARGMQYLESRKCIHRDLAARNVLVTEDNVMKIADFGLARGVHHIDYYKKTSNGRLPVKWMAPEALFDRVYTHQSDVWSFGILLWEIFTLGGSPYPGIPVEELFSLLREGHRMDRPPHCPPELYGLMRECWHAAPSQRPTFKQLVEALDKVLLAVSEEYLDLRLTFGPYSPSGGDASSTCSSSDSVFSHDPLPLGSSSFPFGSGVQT
FGFR1/FGFR4 [1],FGFR2/FGFR4 [1],FGFR3/FGFR4 [1],FGFR1/FGFR4 (pre-incubated for 4 hours),FGFR2/FGFR4 (pre-incubated for 4 hours),FGFR3/FGFR4 (pre-incubated for 4 hours),Structure (SMILES)
,,,>100,>100,>100,"C=CC(=O)Nc1cn(CCN2CCOCC2)nc1-c1cc2c(cn1)CN(c1c(F)c(OC)cc(OC)c1F)C(=O)C21CC1 [Example 34, N-(3-(2′-(2,6-difluoro-3,5-dimethoxyphenyl)-3′-oxo-2′,3′-dihydro-1′H-spiro[cyclopropane-1,4′-[2,7]naphthyridine]-6′-yl)-1-(2-morpholinoethyl)-1H-pyrazol-4-yl)acrylamide]"
,,,>100,>100,>100,"C=CC(=O)Nc1cnn(C[C@@H]2CCOC2)c1-c1cc2c(cn1)CN(c1c(F)c(OC)cc(OC)c1F)C(=O)C21CC1 [Example 28, (S)-N-(5-(2′-(2,6-difluoro-3,5-dimethoxyphenyl)-3′-oxo-2′,3′-dihydro-1′H-spiro[cyclopropane-1,4′-[2,7]naphthyridine]-6′-yl)-1-((tetrahydrofuran-3-yl)methyl)-1H-pyrazol-4-yl)acrylamide]"
,,,>100,>100,>100,"C=CC(=O)Nc1cnn(C[C@H]2CCCO2)c1-c1cc2c(cn1)CN(c1c(F)c(OC)cc(OC)c1F)C(=O)C21CC1 [Example 30, (R)-N-(5-(2′-(2,6-difluoro-3,5-dimethoxyphenyl)-3′-oxo-2′,3′-dihydro-1′H-spiro[cyclopropane-1,4′-[2,7]naphthyridine]-6′-yl)-1-((tetrahydrofuran-2-yl)methyl)-1H-pyrazol-4-yl)acrylamide]"
,,,>100,>100,>100,"C=CC(=O)Nc1cn(CC2CCOCC2)nc1-c1cc2c(cn1)CN(c1c(F)c(OC)cc(OC)c1F)C(=O)C21CC1 [Example 35, N-(3-(2′-(2,6-difluoro-3,5-dimethoxyphenyl)-3′-oxo-2′,3′-dihydro-1′H-spiro[cyclopropane-1,4′-[2,7]naphthyridine]-6′-yl)-1-((tetrahydro-2H-pyran-4-yl)methyl)-1H-pyrazol-4-yl)acrylamide]"
,,,>100,>100,>100,"C=CC(=O)Nc1cn(CCOC)nc1-c1cc2c(cn1)CN(c1c(F)c(OC)cc(OC)c1F)C(=O)C21CC1 [Example 32, N-(3-(2′-(2,6-difluoro-3,5-dimethoxyphenyl)-3′-oxo-2′,3′-dihydro-1′H-spiro[cyclopropane-1,4′-[2,7]naphthyridine]-6′-yl)-1-(2-methoxyethyl)-1H-pyrazol-4-yl)acrylamide]"
,,,>100,>100,>100,"C=CC(=O)Nc1cn(CCOC(F)(F)F)nc1-c1cc2c(cn1)CN(c1c(F)c(OC)cc(OC)c1F)C(=O)C21CC1 [Example 33, N-(3-(2′-(2,6-difluoro-3,5-dimethoxyphenyl)-3′-oxo-2′,3′-dihydro-1′H-spiro[cyclopropane-1,4′-[2,7]naphthyridine]-6′-yl)-1-(2-(trifluoromethoxy)ethyl)-1H-pyrazol-4-yl)acrylamide]"
,,,>100,>100,>100,"C=CC(=O)Nc1cnn(CC2CCOCC2)c1-c1cc2c(cn1)CN(c1c(F)c(OC)cc(OC)c1F)C(=O)C21CC1 [Example 24, N-(5-(2′-(2,6-difluoro-3,5-dimethoxyphenyl)-3′-oxo-2′,3′-dihydro-1′H-spiro[cyclopropane-1,4′-[2,7]naphthyridine]-6′-yl)-1-((tetrahydro-2H-pyran-4-yl)methyl)-1H-pyrazol-4-yl)acrylamide]"
,,,>100,>50,>100,"C=CC(=O)Nc1cnn(Cc2ccnn2C)c1-c1cc2c(cn1)CN(c1c(F)c(OC)cc(OC)c1F)C(=O)C21CC1 [Example 26, N-(5-(2′-(2,6-difluoro-3,5-dimethoxyphenyl)-3′-oxo-2′,3′-dihydro-1′H-spiro[cyclopropane-1,4′-[2,7]naphthyridine]-6′-yl)-1-((1-methyl-1H-pyrazol-5-yl)methyl)-1H-pyrazol-4-yl)acrylamide]"

# Further lines, the compound ahead of its results:
Structure (SMILES),FGFR1/FGFR4 [1],FGFR2/FGFR4 [1],FGFR3/FGFR4 [1],FGFR1/FGFR4 (pre-incubated for 4 hours),FGFR2/FGFR4 (pre-incubated for 4 hours),FGFR3/FGFR4 (pre-incubated for 4 hours)
"C=CC(=O)Nc1ccc(C)c(-c2cc3c(cn2)CN(c2c(F)c(OC)cc(OC)c2F)C(=O)C32CC2)c1 [Example 2, N-(3-(2′-(2,6-difluoro-3,5-dimethoxyphenyl)-3′-oxo-2′,3′-dihydro-1′H-spiro[cyclopropane-1,4′-[2,7]naphthyridine]-6′-yl)-4-methylphenyl)acrylamide]",>100,>100,>100,>100,>100,>100
"C=CC(=O)Nc1cc(CN2CCOCC2)cc(-c2cc3c(cn2)CN(c2c(F)c(OC)cc(OC)c2F)C(=O)C32CC2)c1 [Example 11, N-[3-[2′-(2,6-difluoro-3,5-dimethoxyphenyl)-3′-oxo-2′,3′-dihydro-1′H-spiro[cyclopropane-1,4′-[2,7]naphthyridin]-6′-yl]-5-(morpholin-4-ylmethyl)phenyl]acrylamide]",>100,>100,>100,>100,>100,>100
"C=CC(=O)Nc1cnn(CCOCC)c1-c1cc2c(cn1)CN(c1c(F)c(OC)cc(OC)c1F)C(=O)C21CC1 [Example 16, N-(5-(2′-(2,6-difluoro-3,5-dimethoxyphenyl)-3′-oxo-2′,3′-dihydro-1′H-spiro[cyclopropane-1,4′-[2,7]naphthyridine]-6′-yl)-1-(2-ethoxyethyl)-1H-pyrazol-4-yl)acrylamide]",,,,>100,>100,>100
"C=CC(=O)Nc1cnn(C2CCOCC2)c1-c1cc2c(cn1)CN(c1c(F)c(OC)cc(OC)c1F)C(=O)C21CC1 [Example 18, N-(5-(2′-(2,6-difluoro-3,5-dimethoxyphenyl)-3′-oxo-2′,3′-dihydro-1′H-spiro[cyclopropane-1,4′-[2,7]naphthyridine]-6′-yl)-1-(tetrahydro-2H-pyran-4-yl)-1H-pyrazol-4-yl)acrylamide]",,,,>100,>50,>100
"C=CC(=O)Nc1cnn(Cc2cccnc2)c1-c1cc2c(cn1)CN(c1c(F)c(OC)cc(OC)c1F)C(=O)C21CC1 [Example 22, N-(5-(2′-(2,6-difluoro-3,5-dimethoxyphenyl)-3′-oxo-2′,3′-dihydro-1′H-spiro[cyclopropane-1,4′-[2,7]naphthyridine]-6′-yl)-1-(pyridin-3-ylmethyl)-1H-pyrazol-4-yl)acrylamide]",,,,>100,>100,>100
"C=CC(=O)N1CCCC(c2cc3c(cn2)CN(c2c(F)c(OC)cc(OC)c2F)C(=O)C32CC2)C1 (stereo not drawn) [Example 8, 6′-(1-acryloylpiperidin-3-yl)-2′-(2,6-difluoro-3,5-dimethoxyphenyl)-1′H-spiro[cyclopropane-1,4′-[2,7]naphthyridin]-3′(2′H)-one]",>5,>1,>1,>10,>2,>2
"C=CC(=O)Nc1ccc(C#N)c(-c2cc3c(cn2)CN(c2c(F)c(OC)cc(OC)c2F)C(=O)C32CC2)c1 [Example 5, N-(4-cyano-3-(2′-(2,6-difluoro-3,5-dimethoxyphenyl)-3′-oxo-2′,3′-dihydro-1′H-spiro[cyclopropane-1,4′-[2,7]naphthyridine]-6′-yl)phenyl)acrylamide]",>100,>100,>100,>100,>100,>100
"C=CC(=O)Nc1cnn(Cc2ncn(C)n2)c1-c1cc2c(cn1)CN(c1c(F)c(OC)cc(OC)c1F)C(=O)C21CC1 [Example 23, N-(5-(2′-(2,6-difluoro-3,5-dimethoxyphenyl)-3′-oxo-2′,3′-dihydro-1′H-spiro[cyclopropane-1,4′-[2,7]naphthyridine]-6′-yl)-1-((1-methyl-1H-1,2,4-triazol-3-yl)methyl)-1H-pyrazol-4-yl)acrylamide]",,,,>100,>100,>100
"C=CC(=O)Nc1cnn(CCO)c1-c1cc2c(cn1)CN(c1c(F)c(OC)cc(OC)c1F)C(=O)C21CC1 [Example 17, N-(5-(2′-(2,6-difluoro-3,5-dimethoxyphenyl)-3′-oxo-2′,3′-dihydro-1′H-spiro[cyclopropane-1,4′-[2,7]naphthyridine]-6′-yl)-1-(2-hydroxyethyl)-1H-pyrazol-4-yl)acrylamide]",,,,>100,>100,>100
"C=CC(=O)Nc1cc(-c2cc3c(cn2)CN(c2c(F)c(OC)cc(OC)c2F)C(=O)C32CC2)ccc1CN1CCOCC1 [Example 12, N-(5-(2′-(2,6-difluoro-3,5-dimethoxyphenyl)-3′-oxo-2′,3′-dihydro-1′H-spiro[cyclopropane-1,4′-[2,7]naphthyridine]-6′-yl)-2-(morpholinomethyl)phenyl)acrylamide]",>10,>1,>1,>100,>25,>10
"C=CC(=O)Nc1cnc(C)c(-c2cc3c(cn2)CN(c2c(F)c(OC)cc(OC)c2F)C(=O)C32CC2)c1 [Example 7, N-(5-(2′-(2,6-difluoro-3,5-dimethoxyphenyl)-3′-oxo-2′,3′-dihydro-1′H-spiro[cyclopropane-1,4′-[2,7]naphthyridine]-6′-yl)-6-methylpyridin-3-yl)acrylamide]",>100,>100,>100,>100,>100,>100
"C=CC(=O)Nc1cnn(CCOC)c1-c1cc2c(cn1)CN(c1c(F)c(OC)cc(OC)c1F)C(=O)C21CC1 [Example 15, N-(5-(2′-(2,6-difluoro-3,5-dimethoxyphenyl)-3′-oxo-2′,3′-dihydro-1′H-spiro[cyclopropane-1,4′-[2,7]naphthyridine]-6′-yl)-1-(2-methoxyethyl)-1H-pyrazol-4-yl)acrylamide]",,,,>100,>100,>100
